From patent publication US6784201B2, “Benzothiepines having activity as inhibitors of ileal bile acid transport and taurocholate uptake” (G.D. Searle & Company, priority 1994, dated 2004)
Counter-ions that a name gives are not always drawn.

target: T1, human IBAT (Homo sapiens, UniProt Q12908); test: In vitro assay of IBAT-mediated uptake of [14C]-taurocholate (TC) in H14 cells; format: cell-based; settings: Human TC IC50
T1 construct: expressed in transfected cells; host or cells: Baby hamster kidney (BHK) cells, clone H14
T1 sequence (Q12908 1-348): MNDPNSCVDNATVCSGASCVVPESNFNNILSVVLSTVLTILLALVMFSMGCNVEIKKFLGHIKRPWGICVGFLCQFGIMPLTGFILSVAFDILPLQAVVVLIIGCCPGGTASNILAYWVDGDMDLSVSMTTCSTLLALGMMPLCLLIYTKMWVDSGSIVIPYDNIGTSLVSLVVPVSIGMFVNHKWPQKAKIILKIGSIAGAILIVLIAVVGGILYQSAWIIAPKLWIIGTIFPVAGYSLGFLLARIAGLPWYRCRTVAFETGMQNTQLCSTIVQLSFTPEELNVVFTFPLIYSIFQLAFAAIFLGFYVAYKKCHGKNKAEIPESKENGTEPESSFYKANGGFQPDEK
Summary of the method: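 BHK cells stably expressing human IBAT (H14) were incubated 2 h at 37° C with compound and 3 μM final [14C]-taurocholate in DMEM (4.5 g/L glucose) plus 0.2% fatty acid-free BSA. After cold PBS washes, cell-associated radioactivity was measured by scintillation counting.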

Row | SMILES | IC50 [nM]
1 | CCCCC1(CCCC)CS(=O)(=O)c2ccc(N(C)C)cc2C(c2ccc(CC(=O)N(C)CN(C)C)c(F)c2)C1O (stereo not drawn) [Example 1280] | 760
2 | CCCCC1(CC)CS(=O)(=O)c2ccc(N(C)C)cc2C(c2ccccc2)C1O (stereo not drawn) [Example 1285] | 27

same assay, conditions: In Vitro Taurocholate Uptake, Table 10; read-out: Human TC IC50

Row | SMILES | IC50 [nM]
3 | CCCCC1(CCCC)CS(=O)(=O)c2ccc(N(C)C)cc2[C@@H](c2ccc(OCCC[N+]34CCN(CC3)CC4)cc2)[C@H]1O [Example 1407, (4R-cis)-1-[3-[4-[3,3-Dibutyl-7-(dimethylamino)-2,3,4,5-tetrahydro-4-hydroxy-1,1-dioxido-1-benzothiepin-5-yl]phenoxy]propyl]-4-aza-1-azoniabicyclo[2.2.2]octane, 4-methylbenzenesulfonate (Salt)] | 3

same assay, conditions: read-out: Human TC IC50

Row | SMILES | IC50 [nM]
4 | CCCCC[N+](CCCCC)(CCCCC)CCOCCOCCOc1cccc(C2c3cc(N(C)C)ccc3S(=O)(=O)CC(CCCC)(CCCC)C2O)c1 (stereo not drawn) [Example 1278] | 17
5 | CCCCCC[N+](CCCCCC)(CCCCCC)CCOCCOCCOc1cccc(C2c3cc(N(C)C)ccc3S(=O)(=O)CC(CCCC)(CCCC)C2O)c1 (stereo not drawn) [Example 1279] | 28
6 | CCCCC1(CCCC)CS(=O)(=O)c2ccc(N(C)C)cc2C(c2ccc(OCCCCCCI)cc2)C1O (stereo not drawn) [Example 1281] | 55
7 | CCCCC1(CC)CS(=O)(=O)c2ccc([N+](C)(C)C)cc2C(c2ccc(OC)c(F)c2)C1O (stereo not drawn) [Example 1282] | 170
8 | CCCCC1(CCCC)CS(=O)(=O)c2ccc(N(C)C)cc2C(c2ccc(CO)cc2)C1O (stereo not drawn) [Example 1283] | 170
9 | CCCCC1(CCCC)CS(=O)(=O)c2c(NCC)cccc2C(c2ccc(F)cc2)C1O (stereo not drawn) [Example 1284] | 11
10 | CCCCC1(CCCC)CS(=O)(=O)c2ccc(N(C)C)cc2C(c2ccc(OCCC[N+](CCCC)(CCCC)CCCC)c(F)c2)C1O (stereo not drawn) [Example 1286] | 68
11 | CCCCC1(CCCC)CS(=O)(=O)c2ccc(N(C)C)cc2C(c2cccc(OCCOCCOCC[N+]3(CCOc4ccc(Br)cc4)CCCC3)c2)C1O (stereo not drawn) [Example 1288] | 13
12 | CCCCCCCC[N+](CCCCCCCC)(CCCCCCCC)CCOCCOCCOc1cccc(C2c3cc(N(C)C)ccc3S(=O)(=O)CC(CCCC)(CCCC)C2O)c1 (stereo not drawn) [Example 1289] | 26
13 | CCCCC1(CCCC)CS(=O)(=O)c2ccc(N(C)C)cc2C(c2ccc(OCCC[n+]3ccccc3CCCO)c(F)c2)C1O (stereo not drawn) [Example 1290] | 17
14 | CCCCC1(CCCC)CS(=O)(=O)c2ccc(N(C)C)cc2C(c2ccc(OCc3cccc[n+]3C)c(F)c2)C1O (stereo not drawn) [Example 1291] | 13
15 | CCCCC1(CCCC)CS(=O)(=O)c2ccc(N(C)C)cc2C(c2cccc(OCCOCCOCC[P+](c3ccccc3)(c3ccccc3)c3ccccc3)c2)C1O (stereo not drawn) [Example 1292] | 25
16 | CCCCC1(CCCC)CS(=O)(=O)c2ccc(N(C)C)cc2C(c2cccc(OCCOCCOCC[N+](CC)(CC)CCC(C)=O)c2)C1O (stereo not drawn) [Example 1293] | 19
17 | CCCCC1(CCCC)CS(=O)(=O)c2ccc(N(C)C)cc2C(c2cccc(OCCOCCOCC[N+]3(c4ccccc4)CCCCC3)c2)C1O (stereo not drawn) [Example 1294] | 11
18 | CCCCC1(CCCC)CS(=O)(=O)c2ccc(N(C)C)cc2C(c2ccc(OCc3cc[n+](CC(=O)OC(C)(C)C)cc3)c(F)c2)C1O (stereo not drawn) [Example 1295] | 14
19 | CCCCC1(CCCC)CS(=O)(=O)c2ccc(N(C)C)cc2C(c2ccc(OCCOCCOc3cccc(N(CC)CC)c3)c(F)c2)C1O (stereo not drawn) [Example 1296] | 63
20 | CCCCC1(CCCC)CS(=O)(=O)c2ccc(N(C)C)cc2C(c2cccc(OCCOCCOCC[n+]3ccc(C4CCC(C)CC4)cc3)c2)C1O (stereo not drawn) [Example 1297] | 29
21 | CCCCC1(CCCC)CS(=O)(=O)c2ccc(N(C)C)cc2C(c2cccc(OCCOCCOCC[N+](C)(C)CCC(C)CCN(C)C)c2)C1O (stereo not drawn) [Example 1298] | 18
22 | CCCCC1(CCCC)CS(=O)(=O)c2ccc([N+](C)(C)C)cc2C(c2cccc(OC)c2)C1O (stereo not drawn) [Example 1301] | 150
23 | CCCCC1(CCCC)CS(=O)(=O)c2c(O)cccc2C(c2cccc(O)c2)C1O (stereo not drawn) [Example 1302] | 1400
24 | CCCCC1(CCCC)CS(=O)(=O)c2ccc(N(C)C)cc2C(c2ccc(OCC[N+](C)(C)C)cc2)C1O (stereo not drawn) [Example 1303] | 260
25 | CCCCC1(CCCC)CS(=O)(=O)c2ccc(NC(C)(C)C)cc2C(c2cccc(OC)c2)C1O (stereo not drawn) [Example 1304] | 250
26 | CCCCC1(CCCC)CS(=O)(=O)c2c(NC)cccc2C(c2ccc(F)cc2)C1O (stereo not drawn) [Example 1305] | 250
27 | CCCCC1(CCCC)CS(=O)(=O)c2ccc(N(C)C)cc2C(c2ccc(OC(=O)C(OC)(c3ccccc3)C(F)(F)F)cc2)C1O (stereo not drawn) [Example 1306] | 1200
28 | CCCCC1(CC)CS(=O)(=O)c2ccc(N(C)C)cc2C(c2ccc(OS(=O)(=O)CC34CCC(CC3=O)C4(C)C)c(F)c2)C1O (stereo not drawn) [Example 1308] | 40
29 | CCCCC1(CCCC)CS(=O)(=O)c2c(F)cccc2C(c2ccc(OC)cc2)C1O (stereo not drawn) [Example 1309] | 240
30 | CCCCC1(CC)CS(=O)(=O)c2ccc(N)cc2C(c2ccccc2)C1O (stereo not drawn) [Example 1310] | 1160

Row | SMILES | IC50 [nM]
31 | CCCCCCOc1ccc2c(c1)S(=O)(=O)CC(CC)(CCCC)C(O)C2c1ccccc1 (stereo not drawn) [Example 1312] | 5000
32 | CCCCC1(CC)CS(=O)(=O)c2cc(OCC)ccc2C(c2ccccc2)C1O (stereo not drawn) [Example 1313] | 6100
33 | CCCCCCOc1ccc2c(c1)C(c1ccccc1)C(O)C(CC)(CCCC)CS2(=O)=O (stereo not drawn) [Example 1315] | 1670
34 | CCCCC1(CC)CS(=O)(=O)c2cc(O)ccc2C(c2ccccc2)C1O (stereo not drawn) [Example 1316] | 3900
35 | CCCCC1(CCCC)CS(=O)(=O)c2ccc(N(C)C)cc2C(c2ccc(OC)c(F)c2)C1O (stereo not drawn) [Example 1347] | 3.6
36 | CCCCC1(CCCC)CS(=O)(=O)c2ccc(N(C)C)cc2C(c2ccc(OCCC[N+](CCCC)(CCCC)CCCC)cc2)C1O (stereo not drawn) [Example 1352] | 100
37 | CCCCC1(CCCC)CS(=O)(=O)c2ccc(N(C)C)cc2C(c2ccc(OCCOCCOCC[N+]3(C)CC[N+](C)(C)CC3)c(F)c2)C1O (stereo not drawn) [Example 1354] | 6
38 | CCCCC1(CCCC)CS(=O)(=O)c2ccc(N(C)C)cc2C(c2cccc(OCCOCCOCC[n+]3ccccc3)c2)C1O (stereo not drawn) [Example 1355] | 1.5
39 | CCCCC1(CCCC)CS(=O)(=O)c2ccc(N(C)C)cc2C(c2ccc[n+](C)c2)C1O (stereo not drawn) [Example 1356] | 220
40 | CCCCC1(CCCC)CS(=O)(=O)c2ccc(N(C)C)cc2C(c2cccc(OCCOCCOCC[P+](CC)(CC)CC)c2)C1O (stereo not drawn) [Example 1358] | 8
41 | CCCCC1(CCCC)CS(=O)(=O)c2ccc(N(C)C)cc2C(c2cccc(OCCOCCOCC[n+]3ccn(Cc4ccccc4)c3)c2)C1O (stereo not drawn) [Example 1359] | 14
42 | CCCCC1(CCCC)CS(=O)(=O)c2ccc(N(C)C)cc2C(c2cccc(OCCOCCOCC[n+]3nnn4c3CCCCC4)c2)C1O (stereo not drawn) [Example 1360] | 3
43 | CCCCC1(CCCC)CS(=O)(=O)c2ccc(N(C)C)cc2C(c2cccc(OCCOCCOCC[n+]3cccn3-c3ccccc3)c2)C1O (stereo not drawn) [Example 1361] | 4
44 | CCCCC1(CCCC)CS(=O)(=O)c2ccc(N(C)C)cc2C(c2cccc(OCCOCCOCC[N+](CC)(CC)CCC(=O)O)c2)C1O (stereo not drawn) [Example 1362] | 19
45 | CCCCC1(CCCC)CS(=O)(=O)c2ccc(N(C)C)cc2C(c2cccc(OCCOCCOCC[N+](CC)(CC)CCNS(=O)(=O)N(C)C)c2)C1O (stereo not drawn) [Example 1363] | 8
46 | CCCCC1(CCCC)CS(=O)(=O)c2ccc(N(C)C)cc2C(c2cccc(OCCOCCOCC[N+](CC)(CC)CCNC(N)=O)c2)C1O (stereo not drawn) [Example 1364] | 6
47 | CCCCC1(CCCC)CS(=O)(=O)c2ccc(N(C)C)cc2C(c2cccc(OCCOCCOCC[N+](CC)(CC)CCNS(=O)(=O)c3ccccc3)c2)C1O (stereo not drawn) [Example 1365] | 8
48 | CCCCC1(CCCC)CS(=O)(=O)c2ccc(N(C)C)cc2C(c2ccc(OCCCC[n+]3ccc(C(=O)OC)cc3)c(F)c2)C1O (stereo not drawn) [Example 1366] | 15
49 | CCCCC1(CCCC)CS(=O)(=O)c2ccc(N(C)C)cc2C(c2cccc(OCCOCCOCC[n+]3ccn(CC)c3)c2)C1O (stereo not drawn) [Example 1367] | 2
50 | CCCCC1(CCCC)CS(=O)(=O)c2ccc(N(C)C)cc2C(c2cccc(OCCOCCOCC[n+]3c(C)cc(C)cc3C)c2)C1O (stereo not drawn) [Example 1368] | 5
51 | CCCCC1(CCCC)CS(=O)(=O)c2ccc(N(C)C)cc2C(c2cccc(OCCOCCOCC[n+]3ccccc3-c3ccccc3)c2)C1O (stereo not drawn) [Example 1369] | 5
52 | CCCCC1(CCCC)CS(=O)(=O)c2ccc(N(C)C)cc2C(c2cccc(OCCOCCOCC[N+](C)(C)C3CC(C)(C)N(C)C(C)(C)C3)c2)C1O (stereo not drawn) [Example 1370] | 2
53 | CCCCC1(CCCC)CS(=O)(=O)c2ccc(N(C)C)cc2C(c2cccc(OCCOCCOCC[N+](CC)(CC)CC#N)c2)C1O (stereo not drawn) [Example 1371] | 4
54 | CCCCC1(CCCC)CS(=O)(=O)c2ccc(N(C)C)cc2C(c2cccc(OCCOCCOCC[N+](CC)(CC)CCNC(=O)N(C)C)c2)C1O (stereo not drawn) [Example 1372] | 4
55 | CCCCC1(CCCC)CS(=O)(=O)c2ccc(N(C)C)cc2C(c2cccc(OCCOCCOCC[N+](CC)(CC)CCNP(C)(=O)c3ccccc3)c2)C1O (stereo not drawn) [Example 1373] | 8
56 | CCCCC1(CCCC)CS(=O)(=O)c2ccc(N(C)C)cc2C(c2cccc(OCCOCCOCC[N+](CC)(CC)CCNC(=O)c3ccccc3)c2)C1O (stereo not drawn) [Example 1374] | 7
57 | C=C(C)C(=O)OCC[N+](CC)(CC)CCOCCOCCOc1cccc(C2c3cc(N(C)C)ccc3S(=O)(=O)CC(CCCC)(CCCC)C2O)c1 (stereo not drawn) [Example 1375] | 2
